Drawing on PubChem BioAssay AID1259407 (Chemical Carcinogenesis Research Information System (CCRIS), 2018), this text covers mutagenic call for 8 compounds.

Activity calls are given as the source filed them. How the calls were made is not given here.

The series relates to CCRIS mutagenicity, Ames/micronucleus/aberration tests. In words: CCRIS mutagenicity studies.
Setting [1] is: Test System: AMES SALMONELLA TYPHIMURIUM, Strain/Indicator: TA98, Metabolic Activation: NONE, Method: PREINCUBATION
Setting [2] is: Test System: AMES SALMONELLA TYPHIMURIUM, Strain/Indicator: TA100, Metabolic Activation: NONE, Method: PREINCUBATION
Setting [3] is: Test System: AMES SALMONELLA TYPHIMURIUM, Strain/Indicator: TA98, Metabolic Activation: NONE, Method: STANDARD PLATE.
[4] abbreviates: Test System: AMES SALMONELLA TYPHIMURIUM, Strain/Indicator: TA100, Metabolic Activation: NONE, Method: STANDARD PLATE.

Regarding `CCN(CC)c1ccc2c(C)cc(=O)oc2c1`, the mutagenic call by setting is: (Test System: AMES SALMONELLA TYPHIMURIUM, Strain/Indicator: TA98, Metabolic Activation: HAMSTER, LIVER, S-9, AROCLOR 1254, Method: PREINCUBATION) “inactive; negative”; under setting [1], “inactive; negative”; (Test System: AMES SALMONELLA TYPHIMURIUM, Strain/Indicator: TA98, Metabolic Activation: RAT, LIVER, S-9, AROCLOR 1254, Method: PREINCUBATION) “inactive; negative”; (Test System: AMES SALMONELLA TYPHIMURIUM, Strain/Indicator: TA100, Metabolic Activation: HAMSTER, LIVER, S-9, AROCLOR 1254, Method: PREINCUBATION) “inactive; negative”; under setting [2], “inactive; negative”; (Test System: AMES SALMONELLA TYPHIMURIUM, Strain/Indicator: TA100, Metabolic Activation: RAT, LIVER, S-9, AROCLOR 1254, Method: PREINCUBATION) “inactive; negative”. Besides, the mutagenic call (Test System: AMES SALMONELLA TYPHIMURIUM, Strain/Indicator: TA1535, Metabolic Activation: HAMSTER, LIVER, S-9, AROCLOR 1254, Method: PREINCUBATION) is “inactive; negative”; the mutagenic call (Test System: AMES SALMONELLA TYPHIMURIUM, Strain/Indicator: TA1535, Metabolic Activation: NONE, Method: PREINCUBATION) is “inactive; negative”; the mutagenic call (Test System: AMES SALMONELLA TYPHIMURIUM, Strain/Indicator: TA1535, Metabolic Activation: RAT, LIVER, S-9, AROCLOR 1254, Method: PREINCUBATION) was “inactive; negative”; the mutagenic call (Test System: AMES SALMONELLA TYPHIMURIUM, Strain/Indicator: TA1537, Metabolic Activation: HAMSTER, LIVER, S-9, AROCLOR 1254, Method: PREINCUBATION) is “inactive; negative”; the mutagenic call (Test System: AMES SALMONELLA TYPHIMURIUM, Strain/Indicator: TA1537, Metabolic Activation: NONE, Method: PREINCUBATION) is “inactive; negative”; the mutagenic call (Test System: AMES SALMONELLA TYPHIMURIUM, Strain/Indicator: TA1537, Metabolic Activation: RAT, LIVER, S-9, AROCLOR 1254, Method: PREINCUBATION) is “inactive; negative”.

For `O=C1CCCN1c1ncc([N+](=O)[O-])s1`, the mutagenic call is “active; positive” under setting [3] and “inactive; negative” under setting [4].

Turning to `O=C1/C(=N\Nc2ccc(/C=C/c3ccc(N/N=C4/C=C(S(=O)(=O)O)c5cccnc5C4=O)cc3S(=O)(=O)O)c(S(=O)(=O)O)c2)C=C(S(=O)(=O)O)c2cccnc21`, the mutagenic call (Test System: Mouse lymphoma, Strain/Indicator: L5178Y (tk+/tk-), Metabolic Activation: None, Method: Suspension/plate) is “inactive; negative” and the mutagenic call (Test System: Mouse lymphoma, Strain/Indicator: L5178Y (tk+/tk-), Metabolic Activation: Rat, Liver, S-9, Aroclor 1254, Method: Suspension/plate) was “inactive; negative”.

Regarding `c1cnc2c(c1)[C@@H]1O[C@@H]1C1OC21` (stereo partly specified), the mutagenic call is, setting by setting: under setting [4], “inactive; negative”; (Test System: AMES SALMONELLA TYPHIMURIUM, Strain/Indicator: TA100, Metabolic Activation: RAT, LIVER, S-9, AROCLOR 1254 (10% OR 20%), Method: STANDARD PLATE) “inactive; negative”.

For the compound `COC(=O)Nc1cccc(OC(=O)Nc2cccc(C)c2)c1`, the mutagenic call runs as follows: (Test System: AMES SALMONELLA TYPHIMURIUM, Strain/Indicator: TA97, Metabolic Activation: HAMSTER, LIVER, S-9, AROCLOR 1254 (30%), Method: PREINCUBATION) “inactive; negative”; (Test System: AMES SALMONELLA TYPHIMURIUM, Strain/Indicator: TA97, Metabolic Activation: NONE, Method: PREINCUBATION) “inactive; negative”; (Test System: AMES SALMONELLA TYPHIMURIUM, Strain/Indicator: TA97, Metabolic Activation: RAT, LIVER, S-9, AROCLOR 1254 (30%), Method: PREINCUBATION) “inactive; negative”; (Test System: AMES SALMONELLA TYPHIMURIUM, Strain/Indicator: TA98, Metabolic Activation: HAMSTER, LIVER, S-9, AROCLOR 1254 (10 OR 30%), Method: PREINCUBATION) “inactive; negative”; (Test System: AMES SALMONELLA TYPHIMURIUM, Strain/Indicator: TA98, Metabolic Activation: HAMSTER, LIVER, S-9, AROCLOR 1254 (30%), Method: PREINCUBATION) “active; positive”; under setting [1], “inactive; negative”. The mutagenic call runs as follows: (Test System: AMES SALMONELLA TYPHIMURIUM, Strain/Indicator: TA98, Metabolic Activation: RAT, LIVER, S-9, AROCLOR 1254 (30%), Method: PREINCUBATION) “inactive; negative”; (Test System: AMES SALMONELLA TYPHIMURIUM, Strain/Indicator: TA100, Metabolic Activation: HAMSTER, LIVER, S-9, AROCLOR 1254 (30%), Method: PREINCUBATION) “inactive; negative”; under setting [2], “inactive; negative”; (Test System: AMES SALMONELLA TYPHIMURIUM, Strain/Indicator: TA100, Metabolic Activation: RAT, LIVER, S-9, AROCLOR 1254 (30%), Method: PREINCUBATION) “inactive; negative”; (Test System: AMES SALMONELLA TYPHIMURIUM, Strain/Indicator: TA1538, Metabolic Activation: HAMSTER, LIVER, S-9, AROCLOR 1254 (10%), Method: PREINCUBATION) “inactive; negative”; (Test System: AMES SALMONELLA TYPHIMURIUM, Strain/Indicator: TA1538, Metabolic Activation: HAMSTER, LIVER, S-9, AROCLOR 1254 (30%), Method: PREINCUBATION) “active; positive”. Moreover, the mutagenic call is “inactive; negative” (Test System: AMES SALMONELLA TYPHIMURIUM, Strain/Indicator: TA1538, Metabolic Activation: NONE, Method: PREINCUBATION) and “inactive; negative” (Test System: AMES SALMONELLA TYPHIMURIUM, Strain/Indicator: TA1538, Metabolic Activation: RAT, LIVER, S-9, AROCLOR 1254 (30%), Method: PREINCUBATION).

Take `c1cc(OCC2CO2)c2sncc2c1` (stereo unspecified): the mutagenic call under setting [4] was “active; positive”.

Regarding `CC(C)OC(=O)C(C)(C)Oc1ccc(C(=O)c2ccc(Cl)cc2)cc1`, the mutagenic call is “inactive; negative” under setting [3]; “inactive; negative” (Test System: AMES SALMONELLA TYPHIMURIUM, Strain/Indicator: TA98, Metabolic Activation: RAT, LIVER, S-9, PHENOBARBITAL AND 5,6-BENZOFLAVONE, Method: STANDARD PLATE); “inactive; negative” under setting [4]; “inactive; negative” (Test System: AMES SALMONELLA TYPHIMURIUM, Strain/Indicator: TA100, Metabolic Activation: RAT, LIVER, S-9, PHENOBARBITAL AND 5,6-BENZOFLAVONE, Method: STANDARD PLATE); “inactive; negative” (Test System: AMES SALMONELLA TYPHIMURIUM, Strain/Indicator: TA1535, Metabolic Activation: NONE, Method: STANDARD PLATE); “inactive; negative” (Test System: AMES SALMONELLA TYPHIMURIUM, Strain/Indicator: TA1535, Metabolic Activation: RAT, LIVER, S-9, PHENOBARBITAL AND 5,6-BENZOFLAVONE, Method: STANDARD PLATE). The mutagenic call was “inactive; negative” (Test System: AMES SALMONELLA TYPHIMURIUM, Strain/Indicator: TA1537, Metabolic Activation: NONE, Method: STANDARD PLATE); “inactive; negative” (Test System: AMES SALMONELLA TYPHIMURIUM, Strain/Indicator: TA1537, Metabolic Activation: RAT, LIVER, S-9, PHENOBARBITAL AND 5,6-BENZOFLAVONE, Method: STANDARD PLATE); “inactive; negative” (Test System: E. COLI, Strain/Indicator: WP2 UVRA, Metabolic Activation: NONE, Method: STANDARD PLATE); “inactive; negative” (Test System: E. COLI, Strain/Indicator: WP2 UVRA, Metabolic Activation: RAT, LIVER, S-9, PHENOBARBITAL AND 5,6-BENZOFLAVONE, Method: STANDARD PLATE).

With `[N-]=[N+]=NCc1ccccc1`, the mutagenic call is “inactive; negative” (End Point: IN VITRO CHROMOSOMAL ABERRATIONS, Test System: CHL CELLS, Metabolic Activation: NONE); “inactive; negative” (End Point: IN VITRO CHROMOSOMAL ABERRATIONS, Test System: CHL CELLS, Metabolic Activation: RAT, LIVER, S-9, SODIUM PHENOBARBITAL AND 5,6-BENZOFLAVONE); “active; positive” (Test System: AMES SALMONELLA TYPHIMURIUM, Strain/Indicator: TA100, Metabolic Activation: RAT, LIVER, S-9, PCB, Method: PREINCUBATION).
